Where two headings read alike, the source gives them in different places.
Assays:
human PARP1 = target: T1, human PARP1 (Homo sapiens, UniProt P09874); assay: PARP inhibitor assay (HT Fluorescent Homogeneous PARP Inhibition Assay Kit); assay type: biochemical; settings: for L = PARP inhibition: score
T1 construct: purchased Trevigen
Outline: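 Human PARP1 with NAD and activated DNA, compounds at 10 μM final, 30 min at room temperature in dark. Resazurin/diaphorase cycling mix then added for 1 hr in dark before stop buffer; fluorescent homogeneous kit read-out.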

WI-38 cells [1] = assay: Propidium iodide (PI) cell-death imaging upon H2O2 stress; assay type: cell-based, human; settings: for Assay 7: H2O2-resistant, at 10 uM, validated by propidium iodide (PI) cell-death imaging: w/H2O2, 3 hrs/4 hrs/5 hrs, YES/NO; for cytotoxicity at 10 µM: Homo sapiens, WI-38
WI-38 cells [2] = assay: MMS resistance assay; assay type: cell-based, human; settings: for Triple resistant: H2O2, CdCl2 and MMS; for fold induction at 10 µM: Homo sapiens, 12 h, normalized ATP measurement; for Assay 3: MMS-resistant / Assay 5: Triple resistant: YES/NO; for Assay 3: MMS-resistant: * indicates partial; for Assay 5: Triple resistant: H2O2, cadmium and MMS
Outline: (§1)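 WI-38 cells were given compounds at five final concentrations (0.25–20 μM) in triplicate, followed by cadmium or MMS for 12 h. For MMS, medium was switched from OptiMEM+10% FBS to serum-free DMEM+2% BSA when compounds were added, 24 h before stressor. Two independent assays were run, analysed by global variance t-test.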

[3] = system: PC12 cells expressing poly(Q)103-Htt-EGFP; assay: Poly(Q) toxicity & viability analysis (cellular model of Huntington's disease); assay type: cell-based, rat; settings: for M = Huntington's poly-Q toxicity attenuation: score; for K = Huntington's poly-Q toxicity attenuation: summary score
Outline: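 PC12 cells stably carrying inducible poly(Q)103-Htt-EGFP, whose induced expression causes aggregation and toxicity. Viability read 48 hrs later as ATP content by CellTiter-Glo.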

WI-38 cells [4] = assay: CdCl2 (cadmium) resistance assay; assay type: cell-based, human; settings: for fold induction at 10 µM: Homo sapiens, 12 h, normalized ATP measurement; for Assay 4: H2O2- & Cd-resistant / Assay 2: Cadmium-resistant: YES/NO; for Assay 2: Cadmium-resistant: * indicates partial
Outline: as §1

[5] = system: human dermal fibroblast (HDF) primary cells; assay: H2O2-resistance in primary human dermal fibroblasts; assay type: cell-based; settings: for fold induction at 10 µM: Homo sapiens; for Assay 6: H2O2-resistant, at 10 uM, human dermal fibroblast (HDF) primary cells: YES/NO
[6] = Summary score for characterization of 38 core set hits; settings: for D = Triple resistant: 2-point score, multiplex resistance (cadmium, MMS, H2O2); for S = Sum of Negative scores: human; for C = H2O2- & Cd-resistant: score, resistance to both H2O2 and cadmium
Outline: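 Scoring awards 2 points per prominent longevity phenotype: resistance to multiple stresses, activation of FOXO3 and/or NRF2, reduced mTOR. Molecules with apparent DNA-damaging activity or cell toxicity in cultured human cells receive a negative point.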

WI-38 cells [7] = settings: for Percentage of propidium iodide-positive dead cells (no H2O2 stress treatment), at 10 uM: negative control 0.41% ± 0.23%
Protocol: WI-38 cells were seeded on 384-well plates for 24 hrs and then incubated with small molecules for 24 hrs. […] Images were collected on an INCell Analyzer 2000 (GE) and analyzed with the Developer software.

[8] = H2O2 3 hrs, 10 uM, n = 6, negative control 5.44% ± 0.79%, read-out: Percentage of propidium iodide-positive dead cells (under H2O2 stress treatment), 3 hrs
[9] = pre-treatment at 10 uM, 3.5 hours of H2O2, DMSO control 27.4% ± 6.5%, */**/*** = reduced by one/two/three standard deviations, read-out: Percentage of propidium iodide-positive dead cells (under H2O2 stress treatment), at 10 uM
[10] = Exp. 1, WI-38 cells, read-out: Exp. 1, under MMS stress treatment, at 10 uM (fold change)
[11] = Exp. 2, WI-38 cells, read-out: Exp. 2, under MMS stress treatment, at 10 uM (fold change)
[12] = score in summary of 38 core set hits
[13] = Exp. 1, WI-38 cells, read-out: Exp. 1, under Cd2Cl2 stress treatment, at 10 uM (fold change)
[14] = Exp. 2, WI-38 cells, read-out: Exp. 2, under Cd2Cl2 stress treatment, at 10 uM (fold change)
[15] = WI-38 cells, 10 μM, both stressors
[16] = Experiment 1, HDF cells, read-out: Experiment 1, HDF cells (under H2O2 stress treatment), at 10 uM (fold change)
[17] = Experiment 2, HDF cells, read-out: Experiment 2, HDF cells (under H2O2 stress treatment), at 10 uM (fold change)
[18] = H2O2 4 hrs, 10 uM, n = 6, negative control 16.81% ± 1.42%, read-out: Percentage of propidium iodide-positive dead cells (under H2O2 stress treatment), 4 hrs

T1 sequence (P09874 whole entry): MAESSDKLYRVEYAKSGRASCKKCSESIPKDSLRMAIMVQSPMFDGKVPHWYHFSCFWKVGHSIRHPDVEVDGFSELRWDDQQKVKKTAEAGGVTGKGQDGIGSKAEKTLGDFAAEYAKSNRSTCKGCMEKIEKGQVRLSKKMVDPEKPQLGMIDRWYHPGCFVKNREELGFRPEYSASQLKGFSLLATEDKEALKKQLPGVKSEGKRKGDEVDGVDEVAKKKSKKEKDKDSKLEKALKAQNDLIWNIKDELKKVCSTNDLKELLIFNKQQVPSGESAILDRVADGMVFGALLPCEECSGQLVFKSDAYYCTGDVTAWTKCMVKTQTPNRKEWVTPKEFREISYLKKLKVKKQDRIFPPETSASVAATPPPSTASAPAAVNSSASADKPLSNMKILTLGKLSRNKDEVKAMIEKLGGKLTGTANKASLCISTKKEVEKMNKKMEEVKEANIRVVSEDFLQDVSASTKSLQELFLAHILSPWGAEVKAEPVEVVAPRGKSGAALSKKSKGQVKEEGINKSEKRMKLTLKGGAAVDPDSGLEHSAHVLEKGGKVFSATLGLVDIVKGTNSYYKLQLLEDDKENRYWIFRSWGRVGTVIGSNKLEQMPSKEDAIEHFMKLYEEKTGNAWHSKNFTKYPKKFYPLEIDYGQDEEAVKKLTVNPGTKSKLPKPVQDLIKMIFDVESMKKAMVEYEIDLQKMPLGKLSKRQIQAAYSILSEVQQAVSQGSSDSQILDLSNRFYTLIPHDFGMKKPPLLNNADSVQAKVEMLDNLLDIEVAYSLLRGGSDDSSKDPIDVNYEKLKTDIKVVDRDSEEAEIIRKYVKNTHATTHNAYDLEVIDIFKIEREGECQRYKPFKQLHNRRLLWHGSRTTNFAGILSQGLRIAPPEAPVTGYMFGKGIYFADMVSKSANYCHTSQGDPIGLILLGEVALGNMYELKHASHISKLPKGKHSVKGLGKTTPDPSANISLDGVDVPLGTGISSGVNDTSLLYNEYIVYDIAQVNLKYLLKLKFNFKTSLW

Cc1cc(N)n(-c2ccccc2C(=O)O)n1 [Gr-6A]
Inhibition of PARP1 (human PARP1; 10 μM, in vitro): inhibitors of PARP1
L = PARP inhibition (human PARP1): 1
Assay 7: H2O2-resistant, at 10 uM, validated by propidium iodide (PI) cell-death imaging (WI-38 cells [1]; 10 uM): YES
cytotoxicity at 10 µM (WI-38 cells [1]; [8]): 4.38%
cytotoxicity at 10 µM (WI-38 cells [1]; [9]): 15.6%
MMS-resistant (WI-38 cells [2]): YES
Multiplex resistance to cadmium, MMS and H2O2 (WI-38 cells [2]; 0.25 μM to 20 μM, repurchased molecules): reproducibly conferred multiplex resistance
Triple resistant (WI-38 cells [2]): YES
fold induction at 10 µM (WI-38 cells [2]; [10]): 2.2
fold induction at 10 µM (WI-38 cells [2]; [11]): 7.2
MMS-resistant (WI-38 cells [2]; WI-38 cells, 10 μM): YES
Triple resistant (WI-38 cells [2]; WI-38 cells, 10 μM): YES
Assay 3: MMS-resistant (WI-38 cells [2]): YES
Assay 5: Triple resistant (WI-38 cells [2]): YES
B = MMS resistant (WI-38 cells [2]; [12]): 1
B = MMS resistant (WI-38 cells [2]; summary score): 1
D = Triple resistant (WI-38 cells [2]; summary score): 2
M = Huntington's poly-Q toxicity attenuation [3]: 0
K = Huntington's poly-Q toxicity attenuation [3]: 0
CdCl2-resistant (WI-38 cells [4]): YES
H2O2- & CdCl2-resistant (WI-38 cells [4]): YES
fold induction at 10 µM (WI-38 cells [4]; [13]): 2.46
fold induction at 10 µM (WI-38 cells [4]; [14]): 2.36
CdCl2-resistant (WI-38 cells [4]; WI-38 cells, 10 μM): YES
H2O2- & CdCl2-resistant (WI-38 cells [4]; [15]): YES
Assay 4: H2O2- & Cd-resistant (WI-38 cells [4]): YES
Assay 2: Cadmium-resistant (WI-38 cells [4]): YES
A = Cadmium resistant (WI-38 cells [4]; [12]): 1
A = Cadmium resistant (WI-38 cells [4]; summary score): 1
C = H2O2- & Cd-resistant (WI-38 cells [4]; summary score): 1
fold induction at 10 µM [5, 16]: 10.3
fold induction at 10 µM [5, 17]: 39.3
Assay 6: H2O2-resistant, at 10 uM, human dermal fibroblast (HDF) primary cells [5]: YES
D = Triple resistant [6]: 2
S = Sum of Negative scores [6]: 0
C = H2O2- & Cd-resistant [6]: 1
Percentage of propidium iodide-positive dead cells (no H2O2 stress treatment), at 10 uM (WI-38 cells [7]): 0.41% ± 0.17%,

CCc1ccc(Oc2nc3ccccn3c(=O)c2/C=C(\C#N)C(=O)NCc2ccco2)cc1 [Gr-5B]
L = PARP inhibition (human PARP1): 0
Assay 7: H2O2-resistant, at 10 uM, validated by propidium iodide (PI) cell-death imaging (WI-38 cells [1]; 10 uM): YES
cytotoxicity at 10 µM (WI-38 cells [1]; [8]): 1.18%
cytotoxicity at 10 µM (WI-38 cells [1]; [18]): 6.19%
cytotoxicity at 10 µM (WI-38 cells [1]; [9]): 6.1%
fold induction at 10 µM (WI-38 cells [2]; [10]): 1.13
fold induction at 10 µM (WI-38 cells [2]; [11]): 1.36
B = MMS resistant (WI-38 cells [2]; [12]): 0
B = MMS resistant (WI-38 cells [2]; summary score): 0
D = Triple resistant (WI-38 cells [2]; summary score): 0
M = Huntington's poly-Q toxicity attenuation [3]: 0
K = Huntington's poly-Q toxicity attenuation [3]: 0
fold induction at 10 µM (WI-38 cells [4]; [13]): 1.29
fold induction at 10 µM (WI-38 cells [4]; [14]): 1.36
A = Cadmium resistant (WI-38 cells [4]; [12]): 0
A = Cadmium resistant (WI-38 cells [4]; summary score): 0
C = H2O2- & Cd-resistant (WI-38 cells [4]; summary score): 0
fold induction at 10 µM [5, 16]: 9.16
fold induction at 10 µM [5, 17]: 13.3
Assay 6: H2O2-resistant, at 10 uM, human dermal fibroblast (HDF) primary cells [5]: YES
D = Triple resistant [6]: 0
S = Sum of Negative scores [6]: 0
C = H2O2- & Cd-resistant [6]: 0
Percentage of propidium iodide-positive dead cells (no H2O2 stress treatment), at 10 uM (WI-38 cells [7]): 0.45% ± 0.15%,

O=C(Nc1cc(C(F)(F)F)ccc1Cl)c1ccc([N+](=O)[O-])o1 [Gr-1B]
L = PARP inhibition (human PARP1): 0
Assay 7: H2O2-resistant, at 10 uM, validated by propidium iodide (PI) cell-death imaging (WI-38 cells [1]; 10 uM): YES
cytotoxicity at 10 µM (WI-38 cells [1]; [8]): 2.69%
cytotoxicity at 10 µM (WI-38 cells [1]; [9]): 38.1%
fold induction at 10 µM (WI-38 cells [2]; [10]): 0.7
fold induction at 10 µM (WI-38 cells [2]; [11]): 3.03
Assay 3: MMS-resistant (WI-38 cells [2]): NO *
Assay 5: Triple resistant (WI-38 cells [2]): YES
B = MMS resistant (WI-38 cells [2]; [12]): 0
B = MMS resistant (WI-38 cells [2]; summary score): 0
D = Triple resistant (WI-38 cells [2]; summary score): 0
M = Huntington's poly-Q toxicity attenuation [3]: 0
K = Huntington's poly-Q toxicity attenuation [3]: 0
CdCl2-resistant (WI-38 cells [4]): YES
H2O2- & CdCl2-resistant (WI-38 cells [4]): YES
fold induction at 10 µM (WI-38 cells [4]; [13]): 2.01
fold induction at 10 µM (WI-38 cells [4]; [14]): 1.72
CdCl2-resistant (WI-38 cells [4]; WI-38 cells, 10 μM): YES
H2O2- & CdCl2-resistant (WI-38 cells [4]; [15]): YES
Assay 4: H2O2- & Cd-resistant (WI-38 cells [4]): YES
Assay 2: Cadmium-resistant (WI-38 cells [4]): YES
A = Cadmium resistant (WI-38 cells [4]; [12]): 1
A = Cadmium resistant (WI-38 cells [4]; summary score): 1
C = H2O2- & Cd-resistant (WI-38 cells [4]; summary score): 1
fold induction at 10 µM [5, 16]: 0.51
fold induction at 10 µM [5, 17]: 53.7
Assay 6: H2O2-resistant, at 10 uM, human dermal fibroblast (HDF) primary cells [5]: YES
D = Triple resistant [6]: 0
S = Sum of Negative scores [6]: 0
C = H2O2- & Cd-resistant [6]: 1
PI cell-death imaging without H2O2 (indicating potential toxicity) (WI-38 cells [7]; Assay 8(k), without H2O2, at 10 uM): YES
PI-positive dead cells under normal conditions (WI-38 cells [7]; WI-38, no H2O2, control 0.4±0.2%): 1.0%±0.3%
Percentage of propidium iodide-positive dead cells (no H2O2 stress treatment), at 10 uM (WI-38 cells [7]): 1.03% ± 0.34%,

O=C(/C(=C/c1ccc(Cl)cc1)c1nc2ccccc2[nH]1)c1ccccc1 [Gr-4D]
L = PARP inhibition (human PARP1): 0
Assay 7: H2O2-resistant, at 10 uM, validated by propidium iodide (PI) cell-death imaging (WI-38 cells [1]; 10 uM): YES
cytotoxicity at 10 µM (WI-38 cells [1]; [8]): 1.58%
cytotoxicity at 10 µM (WI-38 cells [1]; [18]): 7.44%
cytotoxicity at 10 µM (WI-38 cells [1]; [9]): 19.8%
fold induction at 10 µM (WI-38 cells [2]; [10]): 1.72
fold induction at 10 µM (WI-38 cells [2]; [11]): 1.33
Assay 3: MMS-resistant (WI-38 cells [2]): YES
Assay 5: Triple resistant (WI-38 cells [2]): YES
B = MMS resistant (WI-38 cells [2]; [12]): 0
B = MMS resistant (WI-38 cells [2]; summary score): 1
D = Triple resistant (WI-38 cells [2]; summary score): 2
M = Huntington's poly-Q toxicity attenuation [3]: 0
K = Huntington's poly-Q toxicity attenuation [3]: 0
CdCl2-resistant (WI-38 cells [4]): YES
H2O2- & CdCl2-resistant (WI-38 cells [4]): YES
fold induction at 10 µM (WI-38 cells [4]; [13]): 2.1
fold induction at 10 µM (WI-38 cells [4]; [14]): 2.88
CdCl2-resistant (WI-38 cells [4]; WI-38 cells, 10 μM): YES
H2O2- & CdCl2-resistant (WI-38 cells [4]; [15]): YES
Assay 4: H2O2- & Cd-resistant (WI-38 cells [4]): YES
Assay 2: Cadmium-resistant (WI-38 cells [4]): YES
A = Cadmium resistant (WI-38 cells [4]; [12]): 1
A = Cadmium resistant (WI-38 cells [4]; summary score): 1
C = H2O2- & Cd-resistant (WI-38 cells [4]; summary score): 1
fold induction at 10 µM [5, 16]: 1.06
fold induction at 10 µM [5, 17]: 2
Assay 6: H2O2-resistant, at 10 uM, human dermal fibroblast (HDF) primary cells [5]: YES
D = Triple resistant [6]: 0
S = Sum of Negative scores [6]: 0
C = H2O2- & Cd-resistant [6]: 1
Percentage of propidium iodide-positive dead cells (no H2O2 stress treatment), at 10 uM (WI-38 cells [7]): 0.42% ± 0.15%,

From patent US11413278B2, “Compounds and methods for promoting stress resistance” (priority 2015, dated 2022)
